Target: T1, CNG channel (bovine retinal rod cGMP-gated channel alpha subunit) (Bos taurus, UniProt Q00194)
T1 sequence (Q00194 1-690): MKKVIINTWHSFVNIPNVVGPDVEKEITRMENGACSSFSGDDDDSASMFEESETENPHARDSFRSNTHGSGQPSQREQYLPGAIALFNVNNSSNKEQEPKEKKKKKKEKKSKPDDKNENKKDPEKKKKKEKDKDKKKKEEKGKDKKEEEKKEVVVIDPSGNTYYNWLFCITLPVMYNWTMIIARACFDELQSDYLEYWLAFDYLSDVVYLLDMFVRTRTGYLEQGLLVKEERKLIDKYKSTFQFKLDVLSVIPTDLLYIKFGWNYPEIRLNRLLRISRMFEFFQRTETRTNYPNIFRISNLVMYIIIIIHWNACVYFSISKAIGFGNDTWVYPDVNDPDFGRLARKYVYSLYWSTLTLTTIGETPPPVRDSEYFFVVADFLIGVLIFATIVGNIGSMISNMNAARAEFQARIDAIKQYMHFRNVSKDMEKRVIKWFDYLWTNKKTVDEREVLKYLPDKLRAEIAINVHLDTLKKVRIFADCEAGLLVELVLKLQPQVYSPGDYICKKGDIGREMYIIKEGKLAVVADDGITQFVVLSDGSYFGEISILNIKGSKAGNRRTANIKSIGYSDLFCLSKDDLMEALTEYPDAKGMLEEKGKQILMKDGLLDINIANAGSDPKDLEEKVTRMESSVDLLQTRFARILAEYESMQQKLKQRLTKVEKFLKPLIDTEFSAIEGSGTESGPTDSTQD
Assay: outside-out patch clamp, macroscopic current block
Assay type: cell-based

IC50 [µM] | SMILES
3.1 | NCCCNCCCCNCCCN [spermine]
1400 | NCCCCN [putrescine]
50 | NCCCCNCCCN [spermidine]

Source: paper PMC2222994 (The Journal of General Physiology, 1999)
